# From patent publication US20180243421A1, “IMMUNOSTIMULATING AGENT” (AJINOMOTO CO., INC., priority 2015, published 2018)
# Test system: IL-4
# Assay: Th2 response: IL-4 production from lymph node cells of immunized mice restimulated with OVA
# Assay type: in vivo, BALB/c mice
# Conditions: Example 10; s.c. OVA 10 μg + 0.256 μmol in 5% αCD saline (Addavax 1:1); groin lymph node ten days later; 0.1-100 μg OVA, 40 hr, ELISA
# Procedure: Ten days later, groin lymph node was collected from all mice of the above-mentioned (1) to (4), lymph node cells were isolated and cultured in 10% FBS-containing RPMI1640 medium. Thereto was added 0.1 μg, 1 μg, 10 μg, 100 μg of OVA, respectively, 40 hr later, cell supernatant was recovered, and IFN-γ and IL-4 in the supernatant were measured by ELISA.
compound,measurement,value
"CCCCCCCCCCCCCCCC(=O)NC(=N)NCCCCN [SZ62, N-hexadecanoylagmatine]",IL-4 production from lymph node cells,did not show an increase
